≈ marks a conversion by molar mass, not a printed value. Calls of active or inactive are those of the source. The calls are words filed in the database; no cut-off is given here.

The test system of data set [1] is Cryptococcus neoformans. The data set can be described thus: Antifungal activity against Cryptococcus neoformans YC-11 by microdilution method. The class given is functional.
In data set [2] the test system is Cryptococcus neoformans. Kind of data set: Antifungal activity against Cryptococcus neoformans YC-11 infected in BALB/c mouse assessed as increase in mouse survival at 1 mg/kg, iv qd for 5 days. The class given is functional, organism-based. The arrangement: dose 1 mg/kg.
The subject of data set [3] is Cryptococcus neoformans. The data set can be described thus: Antifungal activity against Cryptococcus neoformans YC-11 infected in BALB/c mouse assessed as reduction in fungal burden in brain at 1 mg/kg, iv qd for 5 days measured after 7 days of infection. Type of data set: functional.
The subject of another data set is Mus musculus. The data set can be described thus: Toxicity in BALB/c mouse at 4 mg/kg, iv. Type of data set: organism-based. The arrangement: dose 4 mg/kg, route intravenous. The settings on record: in vivo.
In data set [4] the test system is Cryptococcus neoformans. Kind of data set: Antifungal activity against Cryptococcus neoformans YC-11 infected in BALB/c mouse assessed as reduction in fungal burden in brain at 2 mg/kg, iv qd for 5 days measured after 7 days of infection. Type of data set: functional.
Data set [5] concerns Cryptococcus neoformans. The data set can be described thus: Antifungal activity against Cryptococcus neoformans YC-11 infected in BALB/c mouse brain assessed as reduction in multiple fungal induced abscesses at 2 mg/kg, iv qd for 5 days measured after 7 days of infection by histopathological analysis. The class given is functional, organism-based. The arrangement: dose 2 mg/kg.

Data set [6] concerns Cryptococcus neoformans. Kind of data set: Antifungal activity against Cryptococcus neoformans YC-11 infected in BALB/c mouse brain assessed as reduction in multiple fungal induced abscesses at 1 mg/kg, iv qd for 5 days measured after 7 days of infection by histopathological analysis. The class given is functional, organism-based. The arrangement: dose 1 mg/kg.
The test system of data set [7] is Cryptococcus neoformans. Kind of data set: Antifungal activity against Cryptococcus neoformans YC-11 infected in BALB/c mouse assessed as reduction in fungal burden in brain at 4 mg/kg, iv treated qd for 5 days measured after 7 days of infection. Type of data set: functional.
Data set [8] relates to Cryptococcus neoformans. The data set can be described thus: Antifungal activity against Cryptococcus neoformans YC-11 infected in BALB/c mouse assessed as increase in mouse survival at 4 mg/kg, iv qd for 5 days. The class given is functional, organism-based. The arrangement: dose 4 mg/kg.
Data set [9] deals with Cryptococcus neoformans. The data set can be described thus: Antifungal activity against Cryptococcus neoformans YC-11 infected in BALB/c mouse brain assessed as reduction in fungal induced abscesses at 4 mg/kg, iv qd for 5 days measured after 7 days of infection by histopathological analysis. Further details: dose 4 mg/kg. Type of data set: functional, organism-based.
Data set [10] deals with Cryptococcus neoformans. Kind of data set: Antifungal activity against Cryptococcus neoformans YC-11 infected in BALB/c mouse liver assessed as reduction in fungal induced liver damage at 4 mg/kg, iv qd for 5 days measured after 7 days of infection by histopathological analysis. The class given is functional, organism-based. The arrangement: dose 4 mg/kg.
For data set [11], the system named is Cryptococcus neoformans. Kind of data set: Antifungal activity against Cryptococcus neoformans YC-11 infected in BALB/c mouse kidney assessed as reduction in fungal induced tubular cell necrosis at 0.7 mg/kg, iv treated qd for 5 days measured after 7 days of infection by histopathological analysis. The class given is functional, organism-based. Further details: dose 0.7 mg/kg.

In data set [12] the test system is Cryptococcus neoformans. Kind of data set: Antifungal activity against Cryptococcus neoformans YC-11 infected in BALB/c mouse assessed as increase in mouse survival at 0.7 mg/kg, iv qd for 5 days. The arrangement: dose 0.7 mg/kg. The class given is functional, organism-based.
Data set [13] deals with Cryptococcus neoformans. Kind of data set: Antifungal activity against Cryptococcus neoformans YC-11 infected in BALB/c mouse assessed as increase in mouse survival at 0.5 mg/kg, iv qd for 5 days. The class given is functional, organism-based. Further details: dose 0.5 mg/kg.
Data set [14] relates to Cryptococcus neoformans. The data set can be described thus: Antifungal activity against Cryptococcus neoformans YC-11 infected in BALB/c mouse liver assessed as reduction in fungal induced liver damage at 0.7 mg/kg, iv qd for 5 days measured after 7 days of infection by histopathological analysis. The class given is functional, organism-based. Further details: dose 0.7 mg/kg.

Data set [15] concerns Cryptococcus neoformans. The data set can be described thus: Antifungal activity against Cryptococcus neoformans YC-11 infected in BALB/c mouse assessed as increase in mouse survival at 80 mg/kg, iv qd for 5 days. The class given is functional, organism-based. Further details: dose 80 mg/kg.
The subject of data set [16] is Cryptococcus neoformans. Kind of data set: Antifungal activity against Cryptococcus neoformans YC-11 infected in BALB/c mouse assessed as reduction in fungal burden in brain at 20 mg/kg, iv qd for 5 days measured after 7 days of infection. The class given is functional.
The subject of data set [17] is Cryptococcus neoformans. The data set can be described thus: Antifungal activity against Cryptococcus neoformans YC-11 infected in BALB/c mouse brain assessed as reduction in multiple fungal induced abscesses at 80 mg/kg, iv qd for 5 days measured after 7 days of infection by histopathological analysis. The class given is functional, organism-based. The arrangement: dose 80 mg/kg.

For data set [18], the system named is Cryptococcus neoformans. The data set can be described thus: Antifungal activity against Cryptococcus neoformans YC-11 infected in BALB/c mouse assessed as reduction in fungal burden in brain at 40 mg/kg, iv qd for 5 days measured after 7 days of infection. Type of data set: functional.
The test system of data set [19] is Cryptococcus neoformans. The data set can be described thus: Antifungal activity against Cryptococcus neoformans YC-11 infected in BALB/c mouse assessed as reduction in fungal burden in brain at 80 mg/kg, iv qd for 5 days measured after 7 days of infection. Type of data set: functional.

Take `CNc1ccc(C(=O)CC(O)CC[C@H](C)[C@H]2OC(=O)C[C@H](O)CC(=O)C[C@H](O)C[C@H](O)C[C@H](O)C[C@H](O)C[C@]3(O)C[C@H](O)[C@@H](C(=O)NCCN(C)C)C(C[C@@H](OC4O[C@H](C)[C@@H](O)[C@H](NC(=O)CN(C)C)[C@@H]4O)/C=C/C=C/C=C/C=C\C=C/C=C/C=C/[C@@H]2C)O3)cc1.O=C1O[C@H]([C@H](O)CO)C(O)=C1O` (some centres not stated): 0.125 µg/mL was the least that counted as inhibitory with Cryptococcus neoformans [1] (MIC). The outcome with Cryptococcus neoformans [2], in the data set with Cryptococcus neoformans [8] and with Cryptococcus neoformans [9] was Active. Moreover, the log10cfu amounted to 7.42 with Cryptococcus neoformans [3], 6.44 in the data set with Cryptococcus neoformans [4] and 3.45 with Cryptococcus neoformans [7]. Besides, in the data set with Mus musculus, the Activity entry was “Non-toxic”. For the same compound, the result in the data set with Cryptococcus neoformans [5] and with Cryptococcus neoformans [6] was inactive.

As to `C[C@@H]1[C@H](O)[C@@H](C)/C=C/C=C/C=C/C=C/C=C/C=C/C=C/[C@H](O[C@@H]2O[C@H](C)[C@@H](O)[C@H](N)[C@@H]2O)C[C@@H]2O[C@](O)(C[C@@H](O)C[C@@H](O)[C@H](O)CC[C@@H](O)C[C@@H](O)CC(=O)O[C@H]1C)C[C@H](O)[C@H]2C(=O)O` [AMPHOTERICIN B], inhibition of growth with Cryptococcus neoformans [1] (MIC) required 0.25 µg/mL (≈ 0.271 µM). Further, the result in the data set on Cryptococcus neoformans [10], with Cryptococcus neoformans [12], with Cryptococcus neoformans [13] and in the data set on Cryptococcus neoformans [14] was Active. For the same compound, the outcome in the data set with Cryptococcus neoformans [11] was inactive.

As to `OC(Cn1cncn1)(Cn1cncn1)c1ccc(F)cc1F` [FLUCONAZOLE], the result with Cryptococcus neoformans [15] was Active. For the same compound, the MIC against Cryptococcus neoformans [1] stood at 2 µg/mL (≈ 6.53 µM). Further, the log10cfu was 7.03 in the data set with Cryptococcus neoformans [16], 6.71 in the data set on Cryptococcus neoformans [18] and 6.34 with Cryptococcus neoformans [19]. Also, in the data set with Cryptococcus neoformans [17], the outcome was inactive.

Values taken from ChEMBL document CHEMBL1255330, “Efficacy of SPK-843, a novel polyene antifungal, in a murine model of systemic cryptococcosis” (Antimicrob Agents Chemother, 2008).
